Test results reported in patent US7282492B2, “Insecticidal composition having improved storage stability” (priority 2001, dated 2007).

Assay: Storage stability of Dimethoate emulsifiable concentrates Ia, Ib, Ic (Example 1)
Type: physicochemical
Settings: stored 14 days at 54° C.; Table 1
Description: Three emulsifiable concentrates (Ia, Ib and Ic) containing. Dimethoate were prepared by mixing the components listed below in the amounts stated. Said amounts are parts by weight.
The formulations Ia and Ib are not according to the invention but serve as comparison examples to formulation Ic (according to the invention).
The formulations were stored at different temperatures for various periods of time, whereupon the pro rata share of Dimethoate degradation was determined.

## O=C1C=CC(=O)O1 [maleic anhydride]
  Stabilization of Dimethoate relative to acetic anhydride: twice as effectively
